One compound from PMC9908766, “Characterizing metabolic drivers of Clostridioides difficile infection with activity-based hydrazine probes” (Frontiers in Pharmacology, 2023) can be followed below.

This experiment deals with T1, D-proline reductase (PR), PrdA subunit (Clostridioides difficile, UniProt Q17ZY9).
T1 construct: native PR complex purified from C. difficile VPI 10463; processed PrdA (~23 kDa) with N-terminal pyruvoyl; with PrdB
Nature of the experiment: fluorometric OPA assay of 5-aminovalerate production by purified PR. The class given is biochemical.

One may read the IC50 as the concentration that gives 50% inhibition.

SMILES strings stand for the structures.

Consider `NNCCc1ccccc1` [compound 5, phenelzine], for which the IC50 came to 460 ± 30 µM.
